The text below walks through data of patent US7674595B1, “Solid state NMR method for screening cell membrane protein binding drug candidates” (priority 2006, dated 2010).

In assay [1] the target is M2 Protein from Influenza A virus (Influenza A virus, UniProt P06821). Format: binding. The settings on record: spectra with AMT vs without AMT, FIG. 6.
Assay [2] has as its system gramicidin A channel. The assay is described as follows: 17O solid-state NMR of 17O-[D-Leu10]-gA in AAO-aligned DMPC bilayers, reversible ion binding. The settings on record: 2.4 M KCl, approx. double occupancy of K+ in the dimeric channel, channel perpendicular to B0, 19.6 T, 40° C., reversible by EDTA wash. As for the experimental part: The ^17O-[D-Leu^10]-gA was prepared as described previously (29), resulting in material with 57% enrichment of ^17O isotope (H^172O from Cambridge Isotope Labs, Andover, Mass.). The dry peptide was codissolved with DMPC in a 1:16 molar ratio in benzene/ethanol (20:1 v/v) solvent (28) and pipetted onto the nanoporous support. The organic solution containing gA and DMPC was rapidly adsorbed. This commercial substrate, “20 nm” Anodisc® 13 membranes (Whatman International), is shaped as disks 13 mm in diameter that are approximately […] thick. For ^31P NMR experiments AAO disks were cut into strips less than 5 mm in width to fit into a rectangular approximately 600 μL sample coil. We have also designed a special coil for ^17O NMR that required no disk cutting. Typically, stacks of up to 40 AAO strips or disks were employed for NMR measurements. The disks have a well-aligned through-film porous structure with nanochannels directed perpendicular to the disk outer surface.
The manufacturer specifies that these nanoporous substrates have a 20-nm filtration diameter cutoff. […]
The Leu^10 carbonyl in the gramicidin A pore is one of three carbonyl sites involved in K^+ binding. We have monitored K^+ binding using the ^17O resonance of selectively labeled Leu^10 carbonyls of gramicidin A dimers incorporated into DMPC bilayers and aligned using the AAO method. […]

For assay [3], the system named is gramicidin A channel. The settings on record: DMPC-gA aligned by glass slides, channel parallel to B0; cited from earlier work.

Sequence of M2 Protein from Influenza A virus (P06821 whole entry): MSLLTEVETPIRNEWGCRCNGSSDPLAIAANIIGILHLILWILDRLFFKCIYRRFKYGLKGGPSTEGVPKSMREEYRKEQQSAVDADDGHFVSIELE

Take `NC12CC3CC(CC(C3)C1)C2` [Amantadine]: the “NMR signal changes upon binding drug (spectral shift of M2 protein)” value in assay [1] was “dramatic changes”.
In the case of `[Cl-].[K+]` [KCl], the “downfield shift Δδ of the 17O resonance of Leu10 carbonyl upon ion binding (δ⊥)” value in the assay on gramicidin A channel [2] is reported as “≈ 18 ppm”. Besides, the “shift of the 17O resonance at δ∥ upon K+ binding” value in the assay with gramicidin A channel [3] is 40 ppm.
